Test results published in ChEMBL document CHEMBL4507268 (2021).

Tests used:
Conditions in all cases: Compound concentration 1.0 uM
[1] = target: CDK18/Cyclin Y (Homo sapiens) (UniProt Q07002+Q8ND76)
[2] = target: RAF proto-oncogene serine/threonine-protein kinase (Homo sapiens) (UniProt P04049)
[3] = target: Tyrosine-protein kinase HCK (Homo sapiens) (UniProt P08631)
[4] = target: Aurora kinase B (Homo sapiens) (UniProt Q96GD4)
[5] = target: T1, Serine/threonine-protein kinase D1 (Homo sapiens) (UniProt Q15139)
T1 sequence (whole entry): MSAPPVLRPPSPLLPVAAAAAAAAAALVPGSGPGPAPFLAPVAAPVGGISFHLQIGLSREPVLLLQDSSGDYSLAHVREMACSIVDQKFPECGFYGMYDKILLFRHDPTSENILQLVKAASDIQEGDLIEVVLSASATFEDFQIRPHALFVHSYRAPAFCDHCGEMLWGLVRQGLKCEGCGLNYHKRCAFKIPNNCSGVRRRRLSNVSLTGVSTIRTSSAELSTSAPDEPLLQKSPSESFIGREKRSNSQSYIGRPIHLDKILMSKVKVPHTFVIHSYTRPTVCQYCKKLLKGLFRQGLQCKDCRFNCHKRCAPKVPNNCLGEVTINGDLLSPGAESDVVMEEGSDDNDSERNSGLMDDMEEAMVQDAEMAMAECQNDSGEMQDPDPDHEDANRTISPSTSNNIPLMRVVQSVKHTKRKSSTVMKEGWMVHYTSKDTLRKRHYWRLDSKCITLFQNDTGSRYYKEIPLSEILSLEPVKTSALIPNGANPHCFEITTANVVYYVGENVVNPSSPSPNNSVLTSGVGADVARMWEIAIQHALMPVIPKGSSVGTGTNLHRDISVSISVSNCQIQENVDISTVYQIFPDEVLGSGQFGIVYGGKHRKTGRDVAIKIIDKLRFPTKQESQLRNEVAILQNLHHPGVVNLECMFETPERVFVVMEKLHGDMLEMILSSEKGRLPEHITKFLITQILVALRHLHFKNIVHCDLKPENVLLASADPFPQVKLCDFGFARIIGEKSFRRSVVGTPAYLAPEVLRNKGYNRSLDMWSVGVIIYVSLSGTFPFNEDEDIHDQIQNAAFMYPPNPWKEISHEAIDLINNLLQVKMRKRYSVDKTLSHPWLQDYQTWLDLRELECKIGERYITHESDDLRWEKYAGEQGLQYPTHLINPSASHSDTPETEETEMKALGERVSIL

[6] = target: T2, Cyclin-dependent kinase-like 2 (Homo sapiens) (UniProt Q92772)
T2 sequence (whole entry): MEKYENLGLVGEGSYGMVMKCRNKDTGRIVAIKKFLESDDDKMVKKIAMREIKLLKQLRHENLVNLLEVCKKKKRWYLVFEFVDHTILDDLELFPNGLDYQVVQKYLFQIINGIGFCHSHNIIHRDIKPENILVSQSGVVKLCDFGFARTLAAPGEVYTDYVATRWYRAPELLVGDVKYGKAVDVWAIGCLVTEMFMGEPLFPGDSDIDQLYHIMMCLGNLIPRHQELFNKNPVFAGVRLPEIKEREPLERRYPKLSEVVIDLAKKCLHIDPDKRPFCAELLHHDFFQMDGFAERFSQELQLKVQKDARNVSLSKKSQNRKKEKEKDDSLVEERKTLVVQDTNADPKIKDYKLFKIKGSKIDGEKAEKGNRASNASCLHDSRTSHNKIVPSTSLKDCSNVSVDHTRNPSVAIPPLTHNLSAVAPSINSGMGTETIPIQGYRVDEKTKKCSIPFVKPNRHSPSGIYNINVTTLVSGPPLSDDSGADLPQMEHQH

[7] = target: TGF-beta receptor type-2 (Homo sapiens) (UniProt P37173)
Chain of TGF-beta receptor type-2 (Homo sapiens) (P37173 whole entry): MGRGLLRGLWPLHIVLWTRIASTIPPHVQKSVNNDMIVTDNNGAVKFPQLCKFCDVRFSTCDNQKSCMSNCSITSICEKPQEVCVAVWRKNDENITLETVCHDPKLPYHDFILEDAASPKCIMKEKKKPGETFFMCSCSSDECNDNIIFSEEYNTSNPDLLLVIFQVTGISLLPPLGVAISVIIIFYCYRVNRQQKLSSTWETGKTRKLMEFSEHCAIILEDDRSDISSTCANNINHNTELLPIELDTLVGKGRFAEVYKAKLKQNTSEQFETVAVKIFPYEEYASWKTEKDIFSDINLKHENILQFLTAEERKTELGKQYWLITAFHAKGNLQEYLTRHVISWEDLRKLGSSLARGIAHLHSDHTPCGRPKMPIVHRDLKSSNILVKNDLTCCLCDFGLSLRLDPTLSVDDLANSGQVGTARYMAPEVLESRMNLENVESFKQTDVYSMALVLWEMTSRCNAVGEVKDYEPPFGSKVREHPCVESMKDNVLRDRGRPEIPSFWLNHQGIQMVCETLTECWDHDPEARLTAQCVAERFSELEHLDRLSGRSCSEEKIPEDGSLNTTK

[8] = target: T3, Bone morphogenetic protein receptor type-2 (Homo sapiens) (UniProt Q13873)
T3 sequence (whole entry): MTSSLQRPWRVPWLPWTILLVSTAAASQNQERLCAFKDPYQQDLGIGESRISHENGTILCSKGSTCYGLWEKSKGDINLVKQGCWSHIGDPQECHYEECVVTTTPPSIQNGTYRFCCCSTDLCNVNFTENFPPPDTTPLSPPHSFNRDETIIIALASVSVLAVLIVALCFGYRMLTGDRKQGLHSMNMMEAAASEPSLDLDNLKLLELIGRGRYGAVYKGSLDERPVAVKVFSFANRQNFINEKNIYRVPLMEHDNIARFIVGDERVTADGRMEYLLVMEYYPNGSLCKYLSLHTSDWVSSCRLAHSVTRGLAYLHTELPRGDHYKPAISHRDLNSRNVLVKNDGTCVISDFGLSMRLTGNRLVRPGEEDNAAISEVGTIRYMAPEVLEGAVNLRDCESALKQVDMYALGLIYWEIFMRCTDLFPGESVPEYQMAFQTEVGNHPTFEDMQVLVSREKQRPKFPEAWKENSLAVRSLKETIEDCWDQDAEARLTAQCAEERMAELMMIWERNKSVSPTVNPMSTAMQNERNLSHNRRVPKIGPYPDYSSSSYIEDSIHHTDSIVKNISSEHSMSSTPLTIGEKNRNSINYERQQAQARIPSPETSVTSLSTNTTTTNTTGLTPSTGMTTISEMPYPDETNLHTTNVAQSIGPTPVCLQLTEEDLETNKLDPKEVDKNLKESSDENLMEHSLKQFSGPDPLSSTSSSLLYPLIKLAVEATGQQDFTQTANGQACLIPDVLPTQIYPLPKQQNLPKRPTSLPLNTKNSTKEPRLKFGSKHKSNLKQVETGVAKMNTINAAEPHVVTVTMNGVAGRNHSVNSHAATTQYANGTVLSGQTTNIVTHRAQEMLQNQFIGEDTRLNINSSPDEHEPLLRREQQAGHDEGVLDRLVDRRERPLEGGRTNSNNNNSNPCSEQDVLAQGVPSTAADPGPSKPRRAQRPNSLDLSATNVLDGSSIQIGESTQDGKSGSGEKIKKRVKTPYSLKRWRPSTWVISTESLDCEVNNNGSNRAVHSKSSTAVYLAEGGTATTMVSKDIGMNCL

[9] = target: Mitogen-activated protein kinase 11 (Homo sapiens) (UniProt Q15759)
Chain of Mitogen-activated protein kinase 11 (Homo sapiens) (Q15759 whole entry): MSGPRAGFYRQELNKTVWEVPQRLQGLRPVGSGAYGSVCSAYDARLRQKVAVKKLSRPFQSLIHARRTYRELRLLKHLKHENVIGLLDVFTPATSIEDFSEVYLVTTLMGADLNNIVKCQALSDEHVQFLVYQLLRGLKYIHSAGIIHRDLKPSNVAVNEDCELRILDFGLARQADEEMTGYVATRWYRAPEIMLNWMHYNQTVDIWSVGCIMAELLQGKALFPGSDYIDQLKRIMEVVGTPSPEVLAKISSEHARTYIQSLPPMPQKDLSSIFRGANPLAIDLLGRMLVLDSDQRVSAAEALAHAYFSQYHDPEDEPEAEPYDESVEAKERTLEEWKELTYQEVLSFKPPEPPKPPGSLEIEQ

[10] = target: 5'-AMP-activated protein kinase catalytic subunit alpha-1 (Homo sapiens) (UniProt Q13131)
[11] = target: Serine/threonine-protein kinase WNK1 (Homo sapiens) (UniProt Q9H4A3)
Chain of Serine/threonine-protein kinase WNK1 (Homo sapiens) (Q9H4A3 whole entry, looked up): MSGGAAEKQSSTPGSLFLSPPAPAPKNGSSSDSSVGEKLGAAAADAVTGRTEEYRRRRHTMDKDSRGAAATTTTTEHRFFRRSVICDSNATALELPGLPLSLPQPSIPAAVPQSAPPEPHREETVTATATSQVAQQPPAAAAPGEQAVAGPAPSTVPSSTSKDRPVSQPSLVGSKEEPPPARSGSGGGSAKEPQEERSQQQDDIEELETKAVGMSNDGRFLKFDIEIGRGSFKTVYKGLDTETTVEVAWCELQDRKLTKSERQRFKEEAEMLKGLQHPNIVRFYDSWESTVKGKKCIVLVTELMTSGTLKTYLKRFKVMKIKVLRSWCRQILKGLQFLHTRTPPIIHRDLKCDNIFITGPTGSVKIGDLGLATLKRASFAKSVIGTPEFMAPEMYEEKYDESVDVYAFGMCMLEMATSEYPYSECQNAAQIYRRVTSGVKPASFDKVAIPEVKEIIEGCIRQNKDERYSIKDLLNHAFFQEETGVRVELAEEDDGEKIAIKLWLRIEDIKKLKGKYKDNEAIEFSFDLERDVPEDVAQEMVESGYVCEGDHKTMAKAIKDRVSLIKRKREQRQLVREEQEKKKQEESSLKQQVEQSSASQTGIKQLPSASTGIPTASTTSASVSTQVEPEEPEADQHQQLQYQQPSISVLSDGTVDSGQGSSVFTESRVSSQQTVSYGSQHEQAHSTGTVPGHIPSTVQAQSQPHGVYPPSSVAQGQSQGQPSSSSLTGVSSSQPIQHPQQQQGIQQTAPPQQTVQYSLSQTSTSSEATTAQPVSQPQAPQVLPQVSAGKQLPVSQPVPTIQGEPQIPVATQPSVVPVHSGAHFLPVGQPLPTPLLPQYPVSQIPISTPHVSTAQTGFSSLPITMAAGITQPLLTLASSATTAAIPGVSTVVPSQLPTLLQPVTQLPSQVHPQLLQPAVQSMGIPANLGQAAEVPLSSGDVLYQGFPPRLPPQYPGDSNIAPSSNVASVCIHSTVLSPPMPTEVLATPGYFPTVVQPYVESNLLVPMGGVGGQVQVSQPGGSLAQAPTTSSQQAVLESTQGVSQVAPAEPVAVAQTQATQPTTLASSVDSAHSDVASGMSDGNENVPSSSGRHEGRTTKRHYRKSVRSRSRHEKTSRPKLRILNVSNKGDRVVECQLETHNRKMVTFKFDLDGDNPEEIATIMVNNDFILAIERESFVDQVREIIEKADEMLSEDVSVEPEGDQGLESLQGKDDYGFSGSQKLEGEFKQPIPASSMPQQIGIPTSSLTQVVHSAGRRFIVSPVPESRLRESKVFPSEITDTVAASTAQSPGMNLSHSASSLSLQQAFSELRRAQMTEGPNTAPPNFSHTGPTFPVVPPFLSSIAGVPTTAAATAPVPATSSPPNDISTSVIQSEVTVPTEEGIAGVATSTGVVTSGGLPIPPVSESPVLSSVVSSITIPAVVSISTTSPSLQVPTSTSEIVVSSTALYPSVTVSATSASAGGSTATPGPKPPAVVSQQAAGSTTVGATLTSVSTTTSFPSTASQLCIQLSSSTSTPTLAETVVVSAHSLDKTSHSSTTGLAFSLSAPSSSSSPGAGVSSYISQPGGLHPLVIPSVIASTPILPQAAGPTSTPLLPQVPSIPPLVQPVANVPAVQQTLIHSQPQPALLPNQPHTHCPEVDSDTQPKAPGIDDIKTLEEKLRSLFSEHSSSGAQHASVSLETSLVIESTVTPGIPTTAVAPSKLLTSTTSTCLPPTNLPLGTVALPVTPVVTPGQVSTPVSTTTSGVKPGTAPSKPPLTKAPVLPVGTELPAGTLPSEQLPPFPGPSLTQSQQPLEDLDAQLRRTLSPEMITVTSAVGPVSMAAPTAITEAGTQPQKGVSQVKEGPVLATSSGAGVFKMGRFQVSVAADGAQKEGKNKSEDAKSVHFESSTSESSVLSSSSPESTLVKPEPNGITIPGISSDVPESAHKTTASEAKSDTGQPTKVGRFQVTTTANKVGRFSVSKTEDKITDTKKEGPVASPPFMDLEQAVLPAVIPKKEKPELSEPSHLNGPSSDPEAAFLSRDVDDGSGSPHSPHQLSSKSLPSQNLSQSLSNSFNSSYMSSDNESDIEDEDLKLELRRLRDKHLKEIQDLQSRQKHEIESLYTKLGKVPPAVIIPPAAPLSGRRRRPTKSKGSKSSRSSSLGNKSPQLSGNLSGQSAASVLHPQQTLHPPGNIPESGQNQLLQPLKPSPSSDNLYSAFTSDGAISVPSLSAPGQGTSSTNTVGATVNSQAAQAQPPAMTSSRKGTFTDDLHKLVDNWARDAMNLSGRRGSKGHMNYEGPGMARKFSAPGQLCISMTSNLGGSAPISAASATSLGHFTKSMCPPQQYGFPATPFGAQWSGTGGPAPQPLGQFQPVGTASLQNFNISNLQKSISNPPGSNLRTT

[12] = target: Serine/threonine-protein kinase 24 (Homo sapiens) (UniProt Q9Y6E0)
Chain of Serine/threonine-protein kinase 24 (Homo sapiens) (Q9Y6E0 whole entry, looked up): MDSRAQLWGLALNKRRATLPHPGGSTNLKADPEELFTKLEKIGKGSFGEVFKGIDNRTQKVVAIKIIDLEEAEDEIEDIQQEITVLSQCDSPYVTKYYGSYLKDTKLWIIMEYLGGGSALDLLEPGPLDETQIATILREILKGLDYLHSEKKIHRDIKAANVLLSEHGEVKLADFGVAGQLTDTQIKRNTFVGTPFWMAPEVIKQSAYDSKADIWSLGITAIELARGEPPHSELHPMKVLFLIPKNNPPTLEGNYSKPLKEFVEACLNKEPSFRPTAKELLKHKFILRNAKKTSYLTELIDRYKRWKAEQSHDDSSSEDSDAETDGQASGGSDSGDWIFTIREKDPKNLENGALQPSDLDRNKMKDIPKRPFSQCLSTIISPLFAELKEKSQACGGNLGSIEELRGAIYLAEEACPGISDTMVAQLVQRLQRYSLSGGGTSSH

Measured: % residual kinase activity

Chain of Tyrosine-protein kinase HCK (Homo sapiens) (P08631 2-526 limits assumed): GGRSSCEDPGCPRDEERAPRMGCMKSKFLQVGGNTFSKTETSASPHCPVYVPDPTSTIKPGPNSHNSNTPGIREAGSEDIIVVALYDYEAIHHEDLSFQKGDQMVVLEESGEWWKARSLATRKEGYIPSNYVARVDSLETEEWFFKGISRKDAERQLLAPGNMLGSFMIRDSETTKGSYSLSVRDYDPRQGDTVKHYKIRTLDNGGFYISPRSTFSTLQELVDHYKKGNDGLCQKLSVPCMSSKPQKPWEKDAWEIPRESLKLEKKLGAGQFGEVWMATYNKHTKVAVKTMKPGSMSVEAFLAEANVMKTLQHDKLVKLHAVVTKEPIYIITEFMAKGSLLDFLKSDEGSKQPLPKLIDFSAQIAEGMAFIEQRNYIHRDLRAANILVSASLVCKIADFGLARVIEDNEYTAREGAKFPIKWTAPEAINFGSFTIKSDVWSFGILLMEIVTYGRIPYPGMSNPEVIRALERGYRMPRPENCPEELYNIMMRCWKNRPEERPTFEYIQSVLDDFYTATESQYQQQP
Chain of Aurora kinase B (Homo sapiens) (Q96GD4 whole entry): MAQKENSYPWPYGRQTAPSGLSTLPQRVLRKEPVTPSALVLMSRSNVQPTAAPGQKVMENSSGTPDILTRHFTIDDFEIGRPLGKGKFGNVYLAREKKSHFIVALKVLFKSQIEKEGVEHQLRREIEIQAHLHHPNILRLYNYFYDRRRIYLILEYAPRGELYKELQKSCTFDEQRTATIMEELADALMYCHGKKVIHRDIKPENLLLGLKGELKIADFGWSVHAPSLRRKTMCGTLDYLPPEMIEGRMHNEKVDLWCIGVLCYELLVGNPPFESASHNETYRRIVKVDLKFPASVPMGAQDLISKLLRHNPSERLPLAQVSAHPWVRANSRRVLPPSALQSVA

CN1CCN(c2cnc3c(C4CCN(C(=O)c5ccc(OC(F)(F)F)cc5N)CC4)ncnc3c2)CC1 [BAY-885]
inactive: [1] 100% | [2] 107% | [3] 107% | [4] 94% | [5] 127% | [6] 96% | [7] 108% | [8] 100% | [9] 103% | [10] 101% | [11] 105% | [12] 99%
